Results published in patent US20090270259A1, “Novel Agrochemical Formulations” (priority 2005, published 2009).

Assay: Determination of the active substance content inside the film (UV-vis in THF, with and without ethanol wash)
Format: physicochemical
Conditions: Ecoflex film of Example 1, washed in 15 ml ethanol, UV-vis intensity ratio at 244 nm and 290 nm
Experimental: For applications for the controlled release of active substance, it is useful to determine the active substance content enclosed in the film more specifically.
For this, 27.3 mg of a film charged with chlorpyrifos and prepared by the procedure described above were dissolved in 15 ml of tetrahydrofuran (THF), which is a good solvent both for the active substance and also for the polymer. 0.5 milliliters of this solution were further diluted to a volume of 20 ml with THF; a UV-vis spectrum was recorded for the dilute solution.
In a comparison experiment, the film was firstly washed in 15 ml of ethanol and dried before being analyzed as described above in a solution of THF by means of UV-vis spectroscopy.
Reference spectra were measured a series of THF solutions which, as well as 33.5 mg/l of Ecoflex® comprising Ecoflex® pellets, also comprised chlorpyrifos in concentrations of from 0 to 24 mg/l. A suitable comparison parameter which clearly reflects the chlorpyrifos content is the intensity ratio I2/I1 of characteristic peaks in the UV-vis spectrum at the wavelengths 244 nm and 290 nm.

Question: With `CCOP(=S)(OCC)Oc1nc(Cl)c(Cl)cc1Cl` [chlorpyrifos] as the molecule, how does the “chlorpyrifos used in the film preparation that remains in the film after washing with ethanol (enclosed fraction, released in a delayed manner)” value (dried, dissolved in THF) read?
Answer: The value was 24%.

Question: And the “active substance washed away with ethanol (fraction on the film surface, directly available)” value?
Answer: Its value is 76%.
